The values that follow come from article PMC10035904, “Synthesis of novel sulphamethoxazole derivatives and exploration of their anticancer and antimicrobial properties” (PLOS ONE, 2023).

For test [1], the system named is Staphylococcus epidermidis ATCC 12228. The test is described as follows: Serial dilution on solid agar, S. epidermidis. In kind it is cell-based. The following applies: ATCC12228, solid Mueller-Hinton agar, 24 hours. As for the experimental part:
(§1) Antimicrobial activity of compound 16b on solid agar was tested using the same microbial cultures, and the same suspension preparation procedure, as described in above section. All procedures were done in aseptic conditions.
(§2) Mueller-Hinton agar was boiled and kept at to 37 °C during the whole procedure. Compound 16b solution was prepared in DMSO right before experiment. The Agar was mixed with compound solution at different ratios to make the final compound concentrations of 1 mM, 400 μM, 200 μM and 100 μM. Then 10 ml of prepared solution was poured into sterile Petri dishes (85 mm in diameter) and kept in aseptic conditions while the agar solidified. The agar with 0.5% of DMSO served as a negative control. With the help of loop standard microbial cultures by 0.1 ml were poured on the surface of prepared agar with investigative compound. Then Petri dishes were kept for 24 hours in thermostatic conditions.
(§3) The minimal dilution, i.e. the lowest concentration in μg/mL of the investigative and comparison compounds that inhibited visible growth of microorganisms was the minimal inhibitory concentration (MIC).

Test [2] has as its system Escherichia coli ATCC 25922. Kind of test: Serial broth dilution in liquid medium, E. coli. The following applies: ATCC25922, Mueller-Hinton broth, 24 hours, n = 3. Format: cell-based. As to the method: (§4) Antibacterial and antifungal susceptibility to the compound 16b was tested using a serial broth dilution technique in Mueller-Hinton broth II (BBL, Cockeysville, USA), as described elsewhere. All procedures were done in aseptic conditions. Standard bacterial and fungal cultures were used: Staphylococcus aureus ATCC 25923, Staphylococcus epidermidis ATCC 12228, Escherichia coli ATCC 25922, Enterococcus faecalis ATCC 29212, Klebsiella pneumoniae ATCC 33499, Pseudomonas aeruginosa ATCC 27853, Proteus mirabilis ATCC 12459, Bacillus cereus ATCC 8035, and Candida albicans ATCC 60193. Standard cultures of nonsporic bacteria S. aureus, S. epidermidis, E. coli, E. faecalis, K. pneumoniae, P. aeruginosa and P. mirabilis were cultivated for 20–24 hours at 37°C in Mueller-Hinton Agar (BBL, Cockeysville, USA). A bacterial suspension was prepared from cultivated bacterial cultures in physiological solution according to turbidity standard 0.5 McFarland. Standard culture of sporic bacteria B. cereus was cultivated for 7 days at 37°C in Mueller-Hinton II Agar. […] Then the absorbance was measured at 600 nm using a multi-detection microplate reader. […]

Test [3] relates to Bacillus cereus ATCC 8035. Kind of test: Serial broth dilution in liquid medium, B. cereus. In kind it is cell-based. Particulars: Mueller-Hinton broth, 24 hours; result in words. As for the experimental part: as §4
Test [4] deals with Staphylococcus epidermidis ATCC 12228. Kind of test: Serial broth dilution in liquid medium, S. epidermidis. Format: cell-based. The following applies: Mueller-Hinton broth, 24 hours; result in words. As for the experimental part: as §4
In test [5] the test system is Proteus mirabilis ATCC 12459. Kind of test: Serial broth dilution in liquid medium, P. mirabilis. In kind it is cell-based. The following applies: ATCC12459, Mueller-Hinton broth, 24 hours, n = 3. As to the method:
as §4

Test [6] has as its system Klebsiella pneumoniae ATCC 33499. The test is described as follows: Serial dilution on solid agar, K. pneumoniae. Format: cell-based. The following applies: ATCC33499, solid Mueller-Hinton agar, 24 hours. As to the method: as §1, §2, §3
The subject of test [7] is Staphylococcus aureus ATCC 25923. Kind of test: Serial dilution on solid agar, S. aureus. In kind it is cell-based. The following applies: ATCC25923, solid Mueller-Hinton agar, 24 hours. As to the method: as §1, §2, §3
In test [8] the test system is Enterococcus faecalis ATCC 29212. The test is described as follows: Serial broth dilution in liquid medium, E. faecalis. In kind it is cell-based. Particulars: ATCC29212, Mueller-Hinton broth, 24 hours, 50% reduction of microbial growth, n = 3. As to the method: as §4
The test system of test [9] is Candida albicans ATCC 60193. Kind of test: Serial broth dilution in liquid medium, C. albicans. The following applies: ATCC60193, Mueller-Hinton broth, 48 hours, 50% reduction of microbial growth, n = 3. In kind it is cell-based. As to the method:
as §4

The subject of test [10] is HF, PPC-1, and CaKi-1 cells. The test is described as follows: MTT cell viability screen at 100 μM (cell line not given). In kind it is cell-based, human. The following applies: 72 h, cell line not stated. As to the method:
The effect of synthesized compounds on cell viability was studied using 3-(4,5-dimethylthiazol-2-yl)-2,5-diphenyltetrazolium bromide (MTT; Sigma-Aldrich Co., St Louis, MO, USA) assay, as described elsewhere. Briefly, HF, PPC-1, and CaKi-1 cells were seeded in 96-well plates (Corning) in triplicates at a volume of 100 μL at a concentration of 4 × 10^3 cells/well. After 24 h of incubation, the cells were treated with 100 μM of tested compounds. After 72 h, the MTT reagent (at 0.5 mg/mL concentration) has been added to the wells, and cells were incubated for 4 h. Then the medium was aspirated, and the formed purple crystals were dissolved in 100 μL DMSO (Sigma-Aldrich Co.). The absorbance was measured at 570 and 630 nm using a multi-detection microplate reader. The compound effect on cell viability was calculated using a formula (1): Relativecellviability%=A−A0/ANC−A0 (1) Where: […]

In test [11] the test system is Klebsiella pneumoniae ATCC 33499. The test is described as follows: Serial broth dilution in liquid medium, K. pneumoniae. Format: cell-based. The following applies: ATCC33499, Mueller-Hinton broth, 24 hours, n = 3. As for the experimental part:
as §4

For test [12], the system named is Escherichia coli ATCC 25922. The test is described as follows: Serial dilution on solid agar, E. coli. In kind it is cell-based. The following applies: ATCC25922, solid Mueller-Hinton agar, 24 hours. As for the experimental part: as §1, §2, §3
In test [13] the test system is Pseudomonas aeruginosa ATCC 27853. Kind of test: Serial broth dilution in liquid medium, P. aeruginosa. Format: cell-based. The following applies: ATCC27853, Mueller-Hinton broth, 24 hours, n = 3. As for the experimental part:
as §4

Converted amounts (≈) assume the structure as drawn.

As for `Cc1cc(NS(=O)(=O)c2ccc(NCCC(=O)NN=Cc3ccc([N+](=O)[O-])o3)cc2)no1` [Compound 16b, N-(5-methylisoxazol-3-yl)-4-((3-(2-((5-nitrofuran-2-yl)methylene)hydrazineyl)-3-oxopropyl)amino)-benzenesulfonamide], the MIC turned out to be 100 µM (≈ 46.2 µg/mL) in [1], 1000 µM (≈ 462 µg/mL) in [6], 100 µM (≈ 46.2 µg/mL) in test [7] and 400 µM (≈ 185 µg/mL) in test [12]. The EC50 in [2] was over 100 µM; in test [5], over 100 µM; in test [8], 90 ± 6 µM; in test [9] it was 85.5 ± 7.1 µM; in test [11], over 100 µM; in [13] it was over 100 µM. Besides, the “sensitivity of B. cereus in liquid medium” value in test [3] is listed as “most sensitive”. In addition, the “sensitivity of S. epidermidis in liquid medium” value in test [4] is on record as “most sensitive”. The “reduced cell viability up to about” value in [10] was “about 40%”.
